Assay results as given in ChEMBL document CHEMBL3098003, “Structure-based design of 2-aminopyridine oxazolidinones as potent and selective tankyrase inhibitors” (ACS Med Chem Lett, 2013).
The source made the active and inactive calls. No cut-off for these calls is given here.

Legend:
Mus musculus [1] = assay: Toxicity in athymic nude mouse assessed as diarrhea at 100 mg/kg, po bid for 8 days; format: organism-based; set-up: dose 100 mg/kg, route oral; settings: in vivo, 192 h
Mus musculus [2] = assay: Toxicity in athymic nude mouse assessed as lethargy at 100 mg/kg, po bid for 8 days; format: organism-based; set-up: dose 100 mg/kg, route oral; settings: in vivo, 192 h
[3] = Cytotoxicity against human DLD1 cells; format: functional, cell-based; settings: DLD-1
[4] = biological target: Voltage-gated inwardly rectifying potassium channel KCNH2 (Homo sapiens, UniProt Q12809); assay: Inhibition of human ERG
Chain of Voltage-gated inwardly rectifying potassium channel KCNH2 (Q12809 whole entry): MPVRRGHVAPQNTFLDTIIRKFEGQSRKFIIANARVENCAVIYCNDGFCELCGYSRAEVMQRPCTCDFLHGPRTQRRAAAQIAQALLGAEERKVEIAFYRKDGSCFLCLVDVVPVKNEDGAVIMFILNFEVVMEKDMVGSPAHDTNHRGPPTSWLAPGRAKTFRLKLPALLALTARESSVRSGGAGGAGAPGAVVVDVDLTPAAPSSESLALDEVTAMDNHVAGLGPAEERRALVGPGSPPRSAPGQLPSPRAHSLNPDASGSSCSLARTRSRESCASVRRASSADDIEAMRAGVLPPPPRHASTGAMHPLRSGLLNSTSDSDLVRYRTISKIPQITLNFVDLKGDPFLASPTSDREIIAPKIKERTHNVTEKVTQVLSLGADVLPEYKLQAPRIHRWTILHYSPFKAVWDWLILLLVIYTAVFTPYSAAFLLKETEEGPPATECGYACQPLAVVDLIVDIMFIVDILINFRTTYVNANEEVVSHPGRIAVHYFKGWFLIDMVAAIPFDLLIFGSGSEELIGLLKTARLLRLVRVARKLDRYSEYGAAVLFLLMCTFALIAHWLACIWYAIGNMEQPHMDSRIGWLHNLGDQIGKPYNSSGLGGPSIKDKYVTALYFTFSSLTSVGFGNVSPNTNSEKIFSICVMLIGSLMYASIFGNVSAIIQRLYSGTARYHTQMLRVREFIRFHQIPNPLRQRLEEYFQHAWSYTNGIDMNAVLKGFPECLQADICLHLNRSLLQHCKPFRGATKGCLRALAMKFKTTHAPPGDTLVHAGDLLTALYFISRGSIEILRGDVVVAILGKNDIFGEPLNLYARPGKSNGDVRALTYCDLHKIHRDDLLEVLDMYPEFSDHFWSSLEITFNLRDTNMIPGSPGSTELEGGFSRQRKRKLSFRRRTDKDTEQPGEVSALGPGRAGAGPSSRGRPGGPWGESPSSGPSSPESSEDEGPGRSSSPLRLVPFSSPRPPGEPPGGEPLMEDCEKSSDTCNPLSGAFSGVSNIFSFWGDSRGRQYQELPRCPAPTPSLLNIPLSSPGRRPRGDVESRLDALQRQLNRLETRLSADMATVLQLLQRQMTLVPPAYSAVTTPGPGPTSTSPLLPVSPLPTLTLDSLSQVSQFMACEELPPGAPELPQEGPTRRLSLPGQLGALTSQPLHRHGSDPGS

Substance-P receptor = Substance-P receptor (Homo sapiens, UniProt P25103); assay: Binding affinity to NK1 receptor (unknown origin)
Chain of Substance-P receptor (P25103 whole entry): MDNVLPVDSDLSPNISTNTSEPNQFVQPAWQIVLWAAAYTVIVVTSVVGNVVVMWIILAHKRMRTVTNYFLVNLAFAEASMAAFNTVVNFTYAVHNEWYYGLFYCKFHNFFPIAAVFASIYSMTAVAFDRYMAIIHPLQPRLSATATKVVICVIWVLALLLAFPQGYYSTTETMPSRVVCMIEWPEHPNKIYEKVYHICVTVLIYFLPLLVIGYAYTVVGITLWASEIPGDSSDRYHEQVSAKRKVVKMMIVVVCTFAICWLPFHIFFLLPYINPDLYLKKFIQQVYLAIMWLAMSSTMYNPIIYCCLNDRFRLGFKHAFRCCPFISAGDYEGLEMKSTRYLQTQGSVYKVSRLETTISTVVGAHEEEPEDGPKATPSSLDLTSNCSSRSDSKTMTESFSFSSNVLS

Mu-type opioid receptor = Mu-type opioid receptor (Homo sapiens, UniProt P35372); assay: Binding affinity to mu opioid receptor (unknown origin)
Chain of Mu-type opioid receptor (P35372 whole entry): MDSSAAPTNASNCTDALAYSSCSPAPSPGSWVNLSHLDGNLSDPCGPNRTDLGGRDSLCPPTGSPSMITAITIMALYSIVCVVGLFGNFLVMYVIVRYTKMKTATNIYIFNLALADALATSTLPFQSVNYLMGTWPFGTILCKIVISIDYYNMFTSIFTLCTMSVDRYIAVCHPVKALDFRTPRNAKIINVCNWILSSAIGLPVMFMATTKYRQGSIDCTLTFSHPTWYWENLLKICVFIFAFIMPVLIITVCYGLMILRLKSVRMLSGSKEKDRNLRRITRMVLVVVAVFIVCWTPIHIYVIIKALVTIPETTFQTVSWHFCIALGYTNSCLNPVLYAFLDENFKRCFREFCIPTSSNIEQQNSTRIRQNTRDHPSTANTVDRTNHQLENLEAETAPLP

Histamine H1 receptor = Histamine H1 receptor (Homo sapiens, UniProt P35367); assay: Binding affinity to histamine H1 receptor (unknown origin)
Chain of Histamine H1 receptor (P35367 whole entry): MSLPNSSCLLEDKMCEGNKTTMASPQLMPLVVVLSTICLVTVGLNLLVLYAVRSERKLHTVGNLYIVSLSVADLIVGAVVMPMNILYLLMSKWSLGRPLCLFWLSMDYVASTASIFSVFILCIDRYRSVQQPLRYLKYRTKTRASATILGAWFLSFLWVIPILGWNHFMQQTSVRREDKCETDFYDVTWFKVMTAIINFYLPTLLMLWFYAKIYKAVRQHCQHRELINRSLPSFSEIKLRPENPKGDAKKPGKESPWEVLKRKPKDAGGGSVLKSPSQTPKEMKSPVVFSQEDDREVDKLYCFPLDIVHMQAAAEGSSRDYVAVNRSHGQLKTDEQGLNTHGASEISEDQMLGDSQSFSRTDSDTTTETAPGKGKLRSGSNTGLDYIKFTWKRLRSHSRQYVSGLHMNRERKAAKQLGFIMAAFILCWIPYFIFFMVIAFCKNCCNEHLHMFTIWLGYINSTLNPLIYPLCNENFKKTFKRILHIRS

D(2) dopamine receptor = D(2) dopamine receptor (Homo sapiens, UniProt P14416); assay: Binding affinity to dopamine D2 receptor (unknown origin)
Chain of D(2) dopamine receptor (P14416 whole entry): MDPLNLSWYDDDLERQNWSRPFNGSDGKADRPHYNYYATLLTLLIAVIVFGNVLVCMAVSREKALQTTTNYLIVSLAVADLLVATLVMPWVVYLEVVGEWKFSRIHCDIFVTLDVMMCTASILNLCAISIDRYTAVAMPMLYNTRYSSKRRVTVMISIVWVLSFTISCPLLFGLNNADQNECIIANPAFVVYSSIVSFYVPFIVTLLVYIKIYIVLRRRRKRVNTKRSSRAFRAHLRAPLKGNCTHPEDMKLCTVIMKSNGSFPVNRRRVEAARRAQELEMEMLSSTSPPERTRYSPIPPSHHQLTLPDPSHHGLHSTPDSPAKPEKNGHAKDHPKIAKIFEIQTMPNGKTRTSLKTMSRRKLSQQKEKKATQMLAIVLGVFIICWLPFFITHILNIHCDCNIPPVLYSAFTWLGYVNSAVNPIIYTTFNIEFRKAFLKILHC

Mus musculus [5] = assay: In vivo inhibition of tankyrase-mediated TCF7 gene expression in tumor of athymic nude mouse xenografted with human DLD1 cells at 200 mg/kg, po bid for 3 days by STF assay; format: functional, organism-based; set-up: dose 200 mg/kg; settings: DLD-1
[6] = Terminal plasma concentration in athymic nude mouse xenografted with human DLD1 cells at 200 mg/kg, po bid for 3 days; format: ADME, organism-based, DLD-1; set-up: dose 200 mg/kg, route oral; settings: read-out: Cp(T)
[7] = Intrinsic clearance in human liver microsomes; format: ADME; settings: read-out: CLH
Tankyrase 1/2 = biological target: T1, Tankyrase 1/2 (Homo sapiens, UniProt Q9H2K2+O95271); assay: Inhibition of tankyrase in human SW480 cells assessed as degradation of total beta-catenin after 40 to 48 hrs; format: cell-based
T1 sequence (Q9H2K2 whole entry): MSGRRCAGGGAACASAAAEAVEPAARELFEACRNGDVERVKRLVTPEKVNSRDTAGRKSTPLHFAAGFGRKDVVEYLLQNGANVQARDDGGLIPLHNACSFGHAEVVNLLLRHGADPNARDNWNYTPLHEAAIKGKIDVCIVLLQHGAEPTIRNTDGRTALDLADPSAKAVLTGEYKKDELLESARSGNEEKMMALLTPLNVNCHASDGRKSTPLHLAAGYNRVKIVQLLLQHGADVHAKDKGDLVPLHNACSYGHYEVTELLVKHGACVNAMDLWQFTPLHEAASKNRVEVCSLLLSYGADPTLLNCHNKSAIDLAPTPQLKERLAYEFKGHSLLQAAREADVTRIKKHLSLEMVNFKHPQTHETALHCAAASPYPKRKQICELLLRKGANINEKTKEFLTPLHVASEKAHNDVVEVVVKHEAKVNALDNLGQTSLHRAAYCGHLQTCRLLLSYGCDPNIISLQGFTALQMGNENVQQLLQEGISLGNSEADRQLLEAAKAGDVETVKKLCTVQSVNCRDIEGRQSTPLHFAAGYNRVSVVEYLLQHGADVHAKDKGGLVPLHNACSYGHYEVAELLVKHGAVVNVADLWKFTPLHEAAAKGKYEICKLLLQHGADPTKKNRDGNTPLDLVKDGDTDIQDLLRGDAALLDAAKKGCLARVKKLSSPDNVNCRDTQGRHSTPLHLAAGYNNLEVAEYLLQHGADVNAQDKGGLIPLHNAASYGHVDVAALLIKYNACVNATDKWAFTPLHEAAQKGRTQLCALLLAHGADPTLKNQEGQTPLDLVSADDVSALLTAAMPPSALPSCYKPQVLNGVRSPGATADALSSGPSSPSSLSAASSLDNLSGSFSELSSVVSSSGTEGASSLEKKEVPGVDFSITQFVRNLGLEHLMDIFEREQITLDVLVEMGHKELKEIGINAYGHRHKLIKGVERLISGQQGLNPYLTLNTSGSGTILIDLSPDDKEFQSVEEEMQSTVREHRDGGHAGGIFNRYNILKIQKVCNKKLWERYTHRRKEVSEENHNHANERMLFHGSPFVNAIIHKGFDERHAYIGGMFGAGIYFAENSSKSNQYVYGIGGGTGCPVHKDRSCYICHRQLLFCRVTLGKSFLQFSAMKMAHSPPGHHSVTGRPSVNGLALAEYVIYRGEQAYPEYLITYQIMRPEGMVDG
T1 sequence (O95271 whole entry): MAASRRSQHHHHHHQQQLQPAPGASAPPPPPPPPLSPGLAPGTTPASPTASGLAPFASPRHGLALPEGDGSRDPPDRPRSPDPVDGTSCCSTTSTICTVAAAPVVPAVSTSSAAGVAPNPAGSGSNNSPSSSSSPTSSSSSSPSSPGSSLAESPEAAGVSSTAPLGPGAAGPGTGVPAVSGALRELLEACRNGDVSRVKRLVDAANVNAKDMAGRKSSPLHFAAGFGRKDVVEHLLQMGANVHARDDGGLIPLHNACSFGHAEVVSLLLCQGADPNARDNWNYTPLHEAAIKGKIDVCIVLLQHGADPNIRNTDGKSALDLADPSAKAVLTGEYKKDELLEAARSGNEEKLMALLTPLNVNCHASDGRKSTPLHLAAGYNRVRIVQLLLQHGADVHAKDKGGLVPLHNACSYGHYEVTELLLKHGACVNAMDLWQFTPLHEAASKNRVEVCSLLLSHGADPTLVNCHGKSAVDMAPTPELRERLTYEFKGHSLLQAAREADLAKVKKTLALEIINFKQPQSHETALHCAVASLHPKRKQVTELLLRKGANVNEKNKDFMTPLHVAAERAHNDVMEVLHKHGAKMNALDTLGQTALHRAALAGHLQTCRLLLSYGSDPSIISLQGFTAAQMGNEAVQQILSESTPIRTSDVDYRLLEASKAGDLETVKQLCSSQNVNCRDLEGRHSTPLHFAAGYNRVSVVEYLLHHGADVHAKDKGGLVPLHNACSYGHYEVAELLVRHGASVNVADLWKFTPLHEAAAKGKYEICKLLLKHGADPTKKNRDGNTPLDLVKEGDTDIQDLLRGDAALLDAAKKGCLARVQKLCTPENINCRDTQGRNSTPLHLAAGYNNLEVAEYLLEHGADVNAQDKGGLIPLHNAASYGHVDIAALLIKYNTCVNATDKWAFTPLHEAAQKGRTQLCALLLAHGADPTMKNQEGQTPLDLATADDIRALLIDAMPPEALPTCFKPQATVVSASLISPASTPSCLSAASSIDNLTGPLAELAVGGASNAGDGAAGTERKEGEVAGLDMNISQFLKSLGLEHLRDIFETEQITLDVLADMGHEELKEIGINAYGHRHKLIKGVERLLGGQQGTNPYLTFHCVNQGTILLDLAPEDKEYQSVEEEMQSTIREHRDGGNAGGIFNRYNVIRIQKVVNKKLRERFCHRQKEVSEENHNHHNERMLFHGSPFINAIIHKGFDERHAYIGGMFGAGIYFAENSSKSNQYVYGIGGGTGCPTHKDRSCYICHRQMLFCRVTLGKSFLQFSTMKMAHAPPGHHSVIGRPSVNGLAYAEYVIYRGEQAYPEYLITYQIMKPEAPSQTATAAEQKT

SMILES	Activity (Mus musculus [1])	Activity (Mus musculus [2])	IC50 [3] [µM]	IC50 [4] [µM]	IC50 (Substance-P receptor) [µM]	IC50 (Mu-type opioid receptor) [µM]	IC50 (Histamine H1 receptor) [µM]	IC50 (D(2) dopamine receptor) [µM]	inhibition (Mus musculus [5])	concentration at 72 h [6] [µM]	microsomal CLint [7] [µL/min/mg]	IC50 (Tankyrase 1/2) [µM]
CC1(C)OC(=O)N([C@H]2CC[C@H](c3cnc(N)c(-c4ncccn4)c3)CC2)[C@H]1c1ccccc1	Toxic	Toxic	3	10.9	> 48.5	> 48.5	> 48.5	> 48.5	–	–	–	–
CC1(C)OC(=O)N(c2ccc(-c3cnc(N)c(-c4ncccn4)c3)cc2)[C@H]1c1ccccc1	–	–	–	–	–	–	–	–	Active	22.1	33	0.233
